Assay results reported in BindingDB's records for patent US10513534 (IDENIX PHARMACEUTICALS LLC; CENTRE NATIONAL DE LA RECHERCHE …, 2019).

Each compound was assayed against T1, Genome polyprotein (Hepatitis C virus genotype 1b (isolate Japanese), UniProt P26662) (assay: not given).
For `C[C@@]1(Cl)[C@H](O)[C@@H](COP(=O)(O)OP(=O)(O)OP(=O)(O)O)O[C@H]1n1ccc2c(N)ncnc21` [US10513534, Compound 403], the IC50 was less than 0.25 µM.
Compound `C[C@@]1(Cl)[C@H](O)[C@@H](COP(=O)(O)OP(=O)(O)OP(=O)(O)O)O[C@H]1n1cnc2c(N)nc(Cl)nc21` [US10513534, Compound 404] has an IC50 greater than 10 µM.
Compound `C[C@@]1(Cl)[C@H](O)[C@@H](COP(=O)(O)OP(=O)(O)OP(=O)(O)O)O[C@H]1n1cnc2c(=O)[nH]c(N)nc21` [US10513534, Compound 405] has an IC50 of less than 0.25 µM.
Compound `C[C@@]1(Cl)[C@H](O)[C@@H](COP(=O)(O)OP(=O)(O)OP(=O)(O)O)O[C@H]1n1cc(F)c2c(N)ncnc21` [US10513534, Compound 407] has an IC50 of less than 0.25 µM.

What follows are compounds tested against T1, Genome polyprotein (assay: HCV Polymerase Enzyme Assay).
Text: Test compounds in the form of nucleoside triphosphates were examined for inhibitory activity against purified HCV polymerase in a standard assay. Bacterial expression constructs encoding the approximately 65 kDa HCV genotype 1b NS5B protein were used to generate recombinant HCV polymerases (with a deletion of the 21 carboxy terminal amino acids). Both the wild-type genotype 1b protein and protein containing the S282T mutation were expressed and purified for use in the enzymatic activity assay.The enzymatic activity assay measured the inhibitory effect of increasing concentrations of test compound on the incorporation of α-[33P]-labeled nucleotide into trichloroacetic acid-precipitable material. Recombinant polymerase and synthetic RNA template were combined in reaction buffer containing ribonucleoside triphosphates, α-[33P]-labeled nucleotide and eight concentrations of test compound in three-fold dilutions. Reactions were incubated for two hours at 30° C.Reactions were terminated by the addition of ice-cold trichloroacetic acid and sodium pyrophosphate to promote precipitation of newly-synthesized ribonucleic acid. Precipitable material from the reactions was collected by filtration onto 96-well filter plates, washed extensively with water, and quantified by liquid scintillation.The inhibitory activity of test compounds was determined by fitting results to dose-response curves using XLfit software.
In the case of `C[C@@]1(Cl)[C@H](O)[C@@H](COP(=O)(O)OP(=O)(O)OP(=O)(O)O)O[C@H]1n1ccc(=O)[nH]c1=O` [US10513534, Compound 401], the IC50 is reported as less than 0.25 µM.
Work on `C[C@@]1(Cl)[C@H](O)[C@@H](COP(=O)(O)OP(=O)(O)OP(=O)(O)O)O[C@H]1n1ccc(N)nc1=O` [US10513534, Compound 402] yielded an IC50 of 5.5 µM.
In the case of `C[C@@]1(Cl)[C@H](O)[C@@H](COP(=O)(O)OP(=O)(O)OP(=O)(O)O)O[C@H]1n1cnc2c(N)nc(Cl)nc21` [US10513534, Compound 404], the IC50 is reported as greater than 10 µM.
`C[C@@]1(Cl)[C@H](O)[C@@H](COP(=O)(O)OP(=O)(O)OP(=O)(O)O)O[C@H]1n1cnc2c(N)ncnc21` [US10513534, Compound 406] gave an IC50 of less than 0.25 µM.
